Consider one molecule from BindingDB's records for doi:10.1021/jm0605482 (Amgen, 2006).

The target in this assay is Aurora kinase B (Homo sapiens) (UniProt Q96GD4). Description: Inhibition of Aurora1 by HTRF kinase assay.
Chain of Aurora kinase B (Homo sapiens) (Q96GD4 whole entry, looked up): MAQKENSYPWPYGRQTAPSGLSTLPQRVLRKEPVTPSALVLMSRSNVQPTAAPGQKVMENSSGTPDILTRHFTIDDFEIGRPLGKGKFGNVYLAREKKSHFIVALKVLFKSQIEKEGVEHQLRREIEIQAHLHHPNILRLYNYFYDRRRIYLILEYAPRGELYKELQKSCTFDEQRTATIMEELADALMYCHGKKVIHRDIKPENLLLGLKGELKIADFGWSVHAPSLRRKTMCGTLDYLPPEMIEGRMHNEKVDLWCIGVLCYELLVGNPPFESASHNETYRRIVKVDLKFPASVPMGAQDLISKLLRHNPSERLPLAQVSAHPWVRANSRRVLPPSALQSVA

In the case of `CNc1ncc2cc(-c3cc(C(=O)Nc4cc(C(F)(F)F)ccc4OC4CCN(C)CC4)ccc3C)ccc2n1` [4-methyl-3-(2-(methylamino)quinazolin-6-yl)-N-(2-(1-methylpiperidin-4-yloxy)-5-(trifluoromethyl)phenyl)benzamide], the IC50 was over 5 µM.

Usually IC50 stands for the midpoint of a concentration-inhibition curve. A lower IC50 goes with greater potency in that assay.
